Source: PubChem BioAssay AID330 (DTP/NCI, 2004)
“And” between values parts separate entries of the source, which are not always exact repeats. Equal entries are not always repeated. Inconclusive results and toxic doses are left out.

System: P388 leukemia ip, CD2F1 mice, survival T/C
Assay: NCI In Vivo Anticancer Drug Screen. Data for tumor model P388 Leukemia (intraperitoneal) in CD2F1 (CDF1) mice
Conditions: endpoint: median survival time, higher = longer survival
Summary of the method: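 Mice carrying the transplanted tumor received test compound or vehicle. Survival was recorded in each group, and the value is the treated-group measurement divided by that of the vehicle-treated control group.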

[1] = dose: 60.0 mg/kg/injection, schedule: Q01DX005 (ip), vehicle: saline with Tween-80
[2] = dose: 120.0 mg/kg/injection, schedule: Q01DX005 (ip), vehicle: saline with Tween-80
[3] = dose: 240.0 mg/kg/injection, schedule: Q01DX005 (ip), vehicle: saline with Tween-80
[4] = dose: 50.0 mg/kg/injection, schedule: Q01DX009 (ip), vehicle: saline with Tween-80
[5] = dose: 100.0 mg/kg/injection, schedule: Q01DX009 (ip), vehicle: saline with Tween-80
[6] = dose: 200.0 mg/kg/injection, schedule: Q01DX009 (ip), vehicle: saline with Tween-80
[7] = dose: 12.5 mg/kg/injection, schedule: Q01DX009 (ip), vehicle: Klucel (hydroxypropylcellulose) (HPC)
[8] = dose: 25.0 mg/kg/injection, schedule: Q01DX009 (ip), vehicle: Klucel (hydroxypropylcellulose) (HPC)
[9] = dose: 50.0 mg/kg/injection, schedule: Q01DX001 (ip), vehicle: Klucel (hydroxypropylcellulose) (HPC)
[10] = dose: 100.0 mg/kg/injection, schedule: Q01DX001 (ip), vehicle: Klucel (hydroxypropylcellulose) (HPC)
[11] = dose: 100.0 mg/kg/injection, schedule: Q01DX001 (ip), vehicle: saline with Tween-80
[12] = dose: 50.0 mg/kg/injection, schedule: Q01DX005 (ip), vehicle: Klucel (hydroxypropylcellulose) (HPC)
[13] = dose: 100.0 mg/kg/injection, schedule: Q01DX005 (ip), vehicle: Klucel (hydroxypropylcellulose) (HPC)
[14] = dose: 200.0 mg/kg/injection, schedule: Q01DX005 (ip), vehicle: Klucel (hydroxypropylcellulose) (HPC)
[15] = dose: 50.0 mg/kg/injection, schedule: Q01DX005 (ip), vehicle: saline with Tween-80
[16] = dose: 100.0 mg/kg/injection, schedule: Q01DX005 (ip), vehicle: saline with Tween-80
[17] = dose: 200.0 mg/kg/injection, schedule: Q01DX005 (ip), vehicle: saline with Tween-80

O=[N+]([O-])O.O=[N+]([O-])O.[Cu].c1cnc2c(c1)ccc1cccnc12
T/C (dose: 1.56 mg/kg/injection, schedule: Q04DX002 (ip), vehicle: saline): 101 % of control
T/C (dose: 6.25 mg/kg/injection, schedule: Q04DX002 (ip), vehicle: saline): 99 % of control and 106 % of control

COc1ccccc1NC(=O)CC(=O)N1N=C(N(c2ccccc2)c2ccccc2)CC1c1ccccc1 (configuration not stated)
T/C [1]: 108 % of control
T/C [2]: 107 % of control
T/C [3]: 96 % of control

O=C(O)C(Cc1ccccc1N(CCO)CCO)N1C(=O)c2ccccc2C1=O (configuration not stated)
T/C (dose: 25.0 mg/kg/injection, schedule: Q01DX009 (ip), vehicle: saline with Tween-80): 99 % of control
T/C [4]: 93 % of control
T/C [5]: 93 % of control
T/C [6]: 96 % of control

O=C(O)c1ccc(Cl)c(Cl)c1
T/C [7]: 101 % of control
T/C [8]: 110 % of control
T/C (dose: 50.0 mg/kg/injection, schedule: Q01DX009 (ip), vehicle: Klucel (hydroxypropylcellulose) (HPC)): 99 % of control
T/C (dose: 100.0 mg/kg/injection, schedule: Q01DX009 (ip), vehicle: Klucel (hydroxypropylcellulose) (HPC)): 108 % of control

CCN(CC)[P+](c1ccccc1O)(N(CC)CC)N(CC)CC
T/C (dose: 1.56 mg/kg/injection, schedule: Q01DX009 (ip), vehicle: saline): 100 % of control
T/C (dose: 3.12 mg/kg/injection, schedule: Q01DX009 (ip), vehicle: saline): 101 % of control

COc1cc2c(cc1OC)CN1CCc3ccsc3C1C2 (configuration not stated)
T/C [9]: 104 % of control
T/C [10]: 101 % of control
T/C (dose: 200.0 mg/kg/injection, schedule: Q01DX001 (ip), vehicle: Klucel (hydroxypropylcellulose) (HPC)): 97 % of control

CCCCC(CC1CCCCC1)C(=O)O (configuration not stated)
T/C (dose: 50.0 mg/kg/injection, schedule: Q01DX001 (ip), vehicle: saline with Tween-80): 113 % of control
T/C [11]: 109 % of control
T/C (dose: 200.0 mg/kg/injection, schedule: Q01DX001 (ip), vehicle: saline with Tween-80): 109 % of control

C1=C(c2ccccc2)CS1
T/C [11]: 102 % of control

C#CC1(O)CC2c3ccc(OC)cc3CCC2(C)C1 (configuration not stated)
T/C (dose: 6.25 mg/kg/injection, schedule: Q01DX009 (ip), vehicle: Klucel (hydroxypropylcellulose) (HPC)): 117 % of control
T/C [7]: 105 % of control
T/C [8]: 112 % of control

CCCN1C=C(C(=O)OCC)C(N)=C(C#N)/C1=C\C=C(/C#N)C(=O)OCC
T/C (dose: 6.25 mg/kg/injection, schedule: Q01DX001 (ip), vehicle: Klucel (hydroxypropylcellulose) (HPC)): 89 % of control
T/C (dose: 12.5 mg/kg/injection, schedule: Q01DX001 (ip), vehicle: Klucel (hydroxypropylcellulose) (HPC)): 87 % of control
T/C (dose: 25.0 mg/kg/injection, schedule: Q01DX001 (ip), vehicle: Klucel (hydroxypropylcellulose) (HPC)): 86 % of control
T/C [9]: 88 % of control
T/C [10]: 90 % of control

O=C1N=C2SCCN2C(=O)C1Nc1ccc(Cl)cc1 (configuration not stated)
T/C (dose: 100.0 mg/kg/injection, schedule: Q04DX002 (ip), vehicle: saline with Tween-80): 99 % of control
T/C (dose: 200.0 mg/kg/injection, schedule: Q04DX002 (ip), vehicle: saline with Tween-80): 100 % of control
T/C (dose: 400.0 mg/kg/injection, schedule: Q04DX002 (ip), vehicle: saline with Tween-80): 98 % of control

CN1C(=O)OC(c2ccc(Cl)cc2)C1=O (configuration not stated)
T/C (dose: 25.0 mg/kg/injection, schedule: Q01DX005 (ip), vehicle: Klucel (hydroxypropylcellulose) (HPC)): 100 % of control
T/C [12]: 100 % of control
T/C [13]: 107 % of control
T/C [14]: 100 % of control

ClC1=C(Cl)[C@@]2(Cl)[C@H]3[C@H]4C[C@H]([C@@H]5O[C@H]45)[C@H]3[C@@]1(Cl)C2(Cl)Cl
T/C (dose: 12.5 mg/kg/injection, schedule: Q04DX003 (ip), vehicle: Klucel (hydroxypropylcellulose) (HPC)): 95 % of control

O=C1CCC(=O)N1CCCCCCN1C(=O)CCC1=O
T/C [12]: 90 % of control
T/C [13]: 99 % of control
T/C [14]: 98 % of control
T/C (dose: 400.0 mg/kg/injection, schedule: Q01DX005 (ip), vehicle: Klucel (hydroxypropylcellulose) (HPC)): 89 % of control

Cn1c2nc(=O)n(-c3ccccc3)c(=O)c-2nc2c1CCCC2
T/C (dose: 3.13 mg/kg/injection, schedule: Q01DX009 (ip), vehicle: saline with Tween-80): 100 % of control
T/C (dose: 6.25 mg/kg/injection, schedule: Q01DX009 (ip), vehicle: saline with Tween-80): 106 % of control and 109 % of control
T/C (dose: 12.5 mg/kg/injection, schedule: Q01DX009 (ip), vehicle: saline with Tween-80): 106 % of control and 116 % of control
T/C [4]: 110 % of control
T/C [5]: 115 % of control
T/C [6]: 116 % of control

C=CC(=O)NCNC(=O)CCBr
T/C (dose: 25.0 mg/kg/injection, schedule: Q04DX003 (ip), vehicle: saline with Tween-80): 109 % of control
T/C [4]: 186 % of control
T/C (dose: 100.0 mg/kg/injection, schedule: Q04DX003 (ip), vehicle: saline with Tween-80): 150 % of control
T/C (dose: 200.0 mg/kg/injection, schedule: Q04DX003 (ip), vehicle: saline with Tween-80): 159 % of control and 190 % of control
T/C (dose: 300.0 mg/kg/injection, schedule: Q04DX003 (ip), vehicle: saline with Tween-80): 172 % of control

NC(=S)N/N=C/c1cc(Cl)sc1Cl
T/C [15]: 102 % of control
T/C [16]: 98 % of control
T/C [17]: 96 % of control

[Cl][Pd][Cl]
T/C (dose: 3.0 mg/kg/injection, schedule: Q01DX009 (ip), vehicle: saline with Tween-80): 95 % of control
T/C (dose: 6.0 mg/kg/injection, schedule: Q01DX009 (ip), vehicle: saline with Tween-80): 113 % of control
T/C (dose: 12.0 mg/kg/injection, schedule: Q01DX009 (ip), vehicle: saline with Tween-80): 122 % of control

CN1c2ccccc2Sc2cc(N3c4ccccc4Sc4ccc(C(F)(F)F)cc43)c(C(F)(F)F)cc21
T/C (dose: 100.0 mg/kg/injection, schedule: Q04DX003 (ip), vehicle: Klucel (hydroxypropylcellulose) (HPC)): 101 % of control
T/C (dose: 200.0 mg/kg/injection, schedule: Q04DX003 (ip), vehicle: Klucel (hydroxypropylcellulose) (HPC)): 100 % of control
T/C (dose: 400.0 mg/kg/injection, schedule: Q04DX003 (ip), vehicle: Klucel (hydroxypropylcellulose) (HPC)): 98 % of control

CN(C)C(C)(C#N)C(N)=O (configuration not stated)
T/C (dose: 1.56 mg/kg/injection, schedule: Q04DX003 (ip), vehicle: saline): 103 % of control and 93 % of control
T/C (dose: 3.12 mg/kg/injection, schedule: Q04DX003 (ip), vehicle: saline): 101 % of control
T/C (dose: 6.25 mg/kg/injection, schedule: Q04DX003 (ip), vehicle: saline): 100 % of control and 96 % of control and 98 % of control

CSC#CC(Sc1c(Cl)c(Cl)c(Cl)c(Cl)c1Cl)=C(Sc1c(Cl)c(Cl)c(Cl)c(Cl)c1Cl)Sc1c(Cl)c(Cl)c(Cl)c(Cl)c1Cl
T/C [4]: 99 % of control
T/C [5]: 93 % of control
T/C [6]: 92 % of control

CC(CC(=O)c1ccccc1)=Nc1ccccc1
T/C (dose: 100.0 mg/kg/injection, schedule: Q01DX001 (ip), vehicle: saline sonified): 110 % of control
T/C (dose: 200.0 mg/kg/injection, schedule: Q01DX001 (ip), vehicle: saline sonified): 100 % of control
T/C (dose: 400.0 mg/kg/injection, schedule: Q01DX001 (ip), vehicle: saline sonified): 100 % of control

Cc1c2sc3ccccc3[nH]c2nc2[nH]c3ccccc3sc12
T/C [15]: 108 % of control
T/C [16]: 116 % of control
T/C [17]: 108 % of control

O=C(OCc1ccccc1)n1nnc2ccccc21
T/C [1]: 113 % of control
T/C [2]: 105 % of control
T/C [3]: 111 % of control
